This test concerns hPMBC. Briefly: Chymotrypsin-like ProteasomeGlo assay in hPBMC. It counts as cell-based. Particulars: Homo sapiens; read-out: Pglo hPBMC. Put shortly:
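IC50 derived from luminescent chymotrypsin-like proteasome activity (Suc-LLVY-Glo substrate plus luciferin detection reagent). Measured after 105 min compound exposure at 37 °C, 5% CO2. Cells were human B cells purified from buffy-coat PBMC.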
On to `Cc1ccc2cc1CNC(=O)[C@H](CCc1ccccc1)NC(=O)[C@@H](NC(=O)CC1=NN(c3ccccc3)C(=O)C1)CC(=O)N1CCCC(CCO2)C1` (stereo partly drawn) [Compound 334, N-((9S,12S)-5^4-methyl-8,11,14-trioxo-9-phenethyl-4-oxa-7,10-diaza-1(3,1)-piperidina-5(1,3)-benzenacyclotetradecaphane-12-yl)-2-(5-oxo-1-phenyl-4,5-dihydro-1H-pyrazol-3-yl)acetamide], for which the IC50 is 100 to 500 nM. For the molecule `Cc1ccc2cc1CNC(=O)[C@H](CCc1ccccc1)NC(=O)[C@@H](NC(=O)Cc1ccccc1C)CC(=O)N1CCCC(CCO2)C1` (stereo partly drawn) [Compound 373, N-((9S,12S)-5^4-methyl-8,11,14-trioxo-9-phenethyl-4-oxa-7,10-diaza-1(3,1)-piperidina-5(1,3)-benzenacyclotetradecaphane-12-yl)-2-(o-tolyl)acetamide], the IC50 was under 100 nM.

`COC(C(=O)N[C@H]1CC(=O)N2CCCC(CCOc3ccc(C)c(c3)CNC(=O)[C@H](CCc3ccccc3)NC1=O)C2)c1ccc(N)cc1` (stereo partly drawn) [Compound 326, 2-(4-aminophenyl)-2-methoxy-N-((9S,12S)-5^4-methyl-8,11,14-trioxo-9-phenethyl-4-oxa-7,10-diaza-1(3,1)-piperidina-5(1,3)-benzenacyclotetradecaphane-12-yl)acetamide]: the IC50 was under 100 nM. The result for `Cc1ccc2cc1CNC(=O)C(CCc1cnc3cccnc3c1)NC(=O)[C@@H](NC(=O)OCc1ccccc1)CC(=O)N1CCCC(CCO2)C1` (stereo partly drawn) [Compound 511, benzyl ((12S)-9-(2-(1,5-naphthyridin-3-yl)ethyl)-5^4-methyl-8,11,14-trioxo-4-oxa-7,10-diaza-1(3,1)-piperidina-5(1,3)-benzenacyclotetradecaphane-12-yl)carbamate] reads under 100 nM; that for `CC(=O)N[C@H]1CC(=O)N2CCCC(CCOc3ccc(C)c(c3)CNC(=O)C(c3cn[nH]c3)NC1=O)C2` (stereo partly drawn) [Compound 562, N-((12S)-5^4-methyl-8,11,14-trioxo-9-(1H-pyrazol-4-yl)-4-oxa-7,10-diaza-1(3,1)-piperidina-5(1,3)-benzenacyclotetradecaphane-12-yl)acetamide], under 100 nM; that for `Cc1ccc2cc1CNC(=O)[C@H](CCc1ccccc1)NC(=O)[C@@H](NC(=O)OCc1ccccc1)CCCCC(=O)NCCCCO2` [Compound 347, benzyl ((13S,16S)-1^4-methyl-8,14,17-trioxo-16-phenethyl-2-oxa-7,15,18-triaza-1(1,3)-benzenacyclononadecaphane-13-yl)carbamate], under 100 nM.

The values are drawn from patent publication US20240415819A1, “MACROCYCLIC COMPOUNDS AS PROTEASOME SUBUNIT BETA TYPE-5 INHIBITORS” (Lead Discovery Center GmbH, priority 2021, published 2024).
